Test results taken from patent US4395969A (priority 1981, dated 1983).

Experiments:
[1] = in vivo; details: chinook salmon
[2] = Half-life / degradation in water (gas chromatograph analysis); assay type: physicochemical; details: river water, 15 C
Text: The presence of bacteria and other microorganisms affect the rate of degradation of the dichloro- and tetrachloro-compounds. Because of this the chemicals break down much faster in river water than in artesian well water or distilled water. For short term bioassays the potencies of the chemicals were not affected by the chemistry of the water.

[3] = tested on: sucker and stickleback; details: in vivo
[4] = tested on: threespine stickleback; set-up: species or system Gasterosteus aculeatus; details: in vivo
[5] = tested on: crayfish; experiment: Bioassay, crayfish; assay type: in vivo, Pacifasticus klamathensis; details: 10 C
Protocol: Cursory bioassays were made with small numbers of other fishes and a crayfish (Pacifasticus klamathensis) to check on the universal selectivity of the toxicants. The fishes included Arctic grayling (Thymallus arcticus), longnose sucker (C. catastomus), largescale sucker, (C. macrocheilus), and spotted sucker (Minytrema melanops).
A series of bioassays tested crayfish (9 to 10 crayfish per aquarium) at concentrations of 1, 3, and 10 mg/l of 2, 2-dichlorovinyl diethyl phosphate. […] A second series of bioassays tested crayfish (10 crayfish per aquarium) at 10 concentrations of 2, 2, 2, 1-tetrachloroethyl diethyl phosphate (range, 0 to 1400 μg/l).

[6] = tested on: coho salmon; experiment: Long-term static bioassay, coho salmon; details: 300 μg/l, 64 days, 10 C, individually
[7] = tested on: Kamloops trout; experiment: Static bioassay, lethal concentration to Kamloops trout; assay type: in vivo, Kamloops (an adfluvial rainbow trout)
Protocol: (§1) Bioassays utilized water from an artesian well at Moscow, Idaho and from the headwaters of the Palouse River, also in Idaho. The chemical characteristics of the artesian water were analyzed as follows: Total hardness 67-120 mg/l; total dissolved solids, 160-175 mg/l; and pH 7.1. The chemistry of the Palouse River water was analyzed as follows: total hardness 17 mg/l; methyl orange alkalinity 26 mg/l; total dissolved solids, 32 mg/l and pH, 7.0.
(§2) Fish were acclimated to test temperatures, usually at 5, 7.5, 10, 15 and 20 degrees Celsius (C), at least 60 hours before exposure to toxicants. For fish and crayfish four water baths regulated the temperature of assay aquaria. Each water bath contained a battery of 20 identical 19-liter clear glass containers or 11.4-liter plastic aquaria lined with disposable polyethylene bags and covered with Plexiglass lids to reduce evaporation. For larger fish and large numbers of fish the bioassays were made in two temperature controlled rooms that contained a series of 700-liter circular fiberglass vats and a series of 76- and 91-liter plastic containers.
(§3) Standard bioassay techniques were used in sorting fish and conducting the tests. Fish were placed in aerated test aquaria overnight to permit fish to recover from stress due to handling and to deprive them of food. The average load varied but most bioassays were conducted with about 1 g of fish per liter of water.
(§4) Aliquots of organophosphates were dissolved in ethanol and dispensed to the aquaria to provide concentrations suitable for obtaining the LC0 and LC50 of desirable fish and the LC50 and LC100 of target fish. Control fish were conditioned in the same manner as the test fish, but no chemical was added to the control vessels during the assays. After the addition of a chemical, observations were made mainly at 3, 6, 12, 24, 48, 96, and 192 h. The weight and fork length of fish were obtained when fishes were sacrificed.
(§5) Delineation bioassays determined primarily the LC50 and LC100 of sucker and stickleback and the LC0 and LC50 of salmonids.
(§6) The statistical LC1, LC50, and LC99 were interpolated and/or extrapolated using probit graph paper to approximate the LC0, LC50, and LC100 when the latter set of values was not closely determined by single concentrations in a series.
(§7) The approximate LC50 and LC100 of the target fishes (threespine and brook sticklebacks and bridgelip and white suckers) are tabulated in Table 1. The 96-hour selectivity and safety indices of selected species of salmonids versus the three-spine stickleback are tabulated in Table 3.
(§8) Threespine stickleback, brook stickleback, bridgelip sucker, white sucker, chinook salmon, coho salmon, sockeye salmon, kokanee, Kamloops trout, cutthroat trout, and brook trout were treated with various concentrations of 2, 2, 2, 1-tetrachloroethyl diethyl phosphate and at various temperatures to determine approximate selectivity and safety indices. The approximate LC50 and LC100 of the target fishes (threespine and brook sticklebacks and bridgelip and white suckers) are tabulated in Table 5. The 96-hour selectivity and safety indices of selected species of salmonids versus the threespine stickleback are tabulated in Table 7.

[8] = as above; assay type: in vivo, Kamloops (an adfluvial rainbow trout); details: kamloops trout, in vivo
Protocol: as §1, §2, §3, §4, §5, §6, §7, §8

[9] = Static bioassay, lethal concentration to sockeye salmon; assay type: in vivo, O. nerka; details: sockeye salmon, in vivo
Protocol: as §1, §2, §3, §4, §5, §6, §7, §8

[10] = tested on: sockeye salmon; experiment: as above; assay type: in vivo, O. nerka
Protocol: as §1, §2, §3, §4, §5, §6, §7, §8

[11] = tested on: bridgelip sucker; experiment: Selectivity and safety indices of salmonids versus the bridgelip sucker; assay type: in vivo, Catastomus columbianus; details: 96 h
Text: as §5, §6, §7, §8

[12] = 10 C, individually, read-out: LC50
[13] = with 4 Cl 300:1, 10 C, read-out: LC50 in combination, 2 Cl component

SMILES: CCOP(=O)(OC=C(Cl)Cl)OCC [2,2-dichlorovinyl diethyl phosphate]
- LC50 at 192 h [1]: 5 µg/mL
- half-life [2]: < 20 days
- potency for suckers relative to stickleback [3]: about 10 times
- Selectivity index (LC50/LC50) [4]: 5.7
- crayfish mortality ([5]; 1 mg/l, 96 h): No crayfish died
- crayfish mortality ([5]; 3 mg/l, 96 h): 1 out of 9 crayfish died
- crayfish mortality ([5]; 10 mg/l, 24 h): No crayfish died
- mortality [6]: essentially no mortality
- mortality ([6]; listed as 2, 2-dichlorovinyl diethyl phosphate): no significant mortality
- LC0 ([7]; 5 C, 48 h): > 4.0 mg/L
- LC0 ([7]; 5 C, 96 h): 2.0 mg/L
- LC0 ([7]; 5 C, 192 h): 1.4 mg/L
- LC0 ([7]; 10 C, 48 h): > 4.0 mg/L
- LC0 ([7]; 10 C, 96 h): 2.0 mg/L
- LC0 ([7]; 10 C, 96 h, individually): 2 mg/L
- LC0 ([7]; 10 C, 192 h): 1.0 mg/L
- LC0 ([7]; 15 C, 48 h): 3.0 mg/L
- LC0 ([7]; 15 C, 96 h): 1.0 mg/L
- LC0 ([7]; 15 C, 192 h): 1.0 mg/L
- LC50 at 192 h ([8]; 5 C, read-out: LC50): 5.1 µg/mL
- LC50 at 96 h [8, 12]: 5 µg/mL
- LC50 at 96 h ([8]; 10 C, read-out: LC50): 5.4 µg/mL
- LC50 at 192 h [8, 12]: 2 µg/mL
- LC50 at 192 h ([8]; 10 C, read-out: LC50): 2 µg/mL
- LC50 at 96 h ([8]; 15 C, read-out: LC50): 3.5 µg/mL
- LC50 at 192 h ([8]; 15 C, read-out: LC50): 3 µg/mL
- LC50 at 96 h [8, 13]: 2.4 µg/mL
- LC50 at 192 h [8, 13]: 1.5 µg/mL
- LC50 at 48 h ([9]; 7.5 C): > 10 µg/mL
- LC50 at 96 h ([9]; 7.5 C, read-out: LC50): 9 µg/mL
- LC50 at 192 h ([9]; 7.5 C, read-out: LC50): 4 µg/mL
- LC50 at 48 h ([9]; 10 C): > 8 µg/mL
- LC50 at 96 h [9, 12]: 6 µg/mL
- LC50 at 96 h ([9]; 10 C, read-out: LC50): 6 µg/mL
- LC50 at 192 h [9, 12]: 3.6 µg/mL
- LC50 at 192 h ([9]; 10 C, read-out: LC50): 3.4 µg/mL
- LC50 at 96 h [9, 13]: 2.4 µg/mL
- LC50 at 192 h [9, 13]: 1.8 µg/mL
- LC0 ([10]; 7.5 C, 48 h): > 10.0 mg/L
- LC0 ([10]; 7.5 C, 96 h): 6.0 mg/L
- LC0 ([10]; 7.5 C, 192 h): 2.0 mg/L
- LC0 ([10]; 10 C, 48 h): 6.0 mg/L
- LC0 ([10]; 10 C, 96 h): 3.0 mg/L
- LC0 ([10]; 10 C, 96 h, individually, listed as 2, 2-dichlorovinyl diethyl phosphate): 3 mg/L
- LC0 ([10]; 10 C, 96 h, individually, listed as 2 Cl): 3.6 mg/L
- LC0 ([10]; 10 C, 192 h): 2.0 mg/L
- Safety index (LC0/LC100) ([11]; Kamloops, 5 C): 7
- Selectivity index (LC50/LC50) ([11]; Kamloops, 5 C): > 34
- Safety index (LC0/LC100) ([11]; Kamloops, 10 C): 20
- Selectivity index (LC50/LC50) ([11]; Kamloops, 10 C): 67
- Safety index (LC0/LC100) ([11]; Kamloops, 15 C): 10
- Selectivity index (LC50/LC50) ([11]; Kamloops, 15 C): 70
- Safety index (LC0/LC100) ([11]; brook trout, 15 C): 20
- Selectivity index (LC50/LC50) ([11]; brook trout, 15 C): 66
- Safety index (LC0/LC100) ([11]; chinook, 10 C): 60
- Selectivity index (LC50/LC50) ([11]; chinook, 10 C): 87
- Safety index (LC0/LC100) ([11]; chinook, 15 C): 27
- Selectivity index (LC50/LC50) ([11]; chinook, 15 C): 68
- Safety index (LC0/LC100) ([11]; cutthroat, 10 C): 40
- Selectivity index (LC50/LC50) ([11]; cutthroat, 10 C): > 60
- Safety index (LC0/LC100) ([11]; cutthroat, 15 C): 20
- Selectivity index (LC50/LC50) ([11]; cutthroat, 15 C): 50
- Safety index (LC0/LC100) ([11]; sockeye, 7.5 C): 30
- Selectivity index (LC50/LC50) ([11]; sockeye, 7.5 C): 100
- Safety index (LC0/LC100) ([11]; sockeye, 10 C): 30
- Selectivity index (LC50/LC50) ([11]; sockeye, 10 C): 75
- Safety index (LC0/LC100) ([11]; steelhead, 5 C): 13
- Selectivity index (LC50/LC50) ([11]; steelhead, 5 C): 47
